In ChEMBL document CHEMBL1201862, “PubChem BioAssay data set” (2004):
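Protocol summary: plate cells (96-well), add compound at 5 concentrations, incubate 48 h, interpolate endpoints linearly. Abbreviation: GI50, concentration required for 50% inhibition of growth.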 Calls of active or inactive are those of the source. No stated cut-off is given here; in the data, active = GI50 up to about 1.1 µM and inactive = higher.

Key:
Assay in all cases: NCI anticancer screen, dose series, 48 h
BT-549 = tested on: BT-549
M14 = tested on: M14
U-251 = tested on: U-251
SK-MEL-2 = tested on: SK-MEL-2
CAKI-1 = tested on: CAKI-1
HL-60 = tested on: HL-60
SW-620 = tested on: SW-620
KM12 = tested on: KM12
EKVX = tested on: EKVX
UACC-62 = tested on: UACC-62
PC-3 = tested on: PC-3
OVCAR-4 = tested on: OVCAR-4
UO-31 = tested on: UO-31
SF-295 = tested on: SF-295
SR = tested on: SR
HT-29 = tested on: HT-29
HOP-92 = tested on: HOP-92
SK-OV-3 = tested on: SK-OV-3

Compound	GI50 (BT-549)	GI50 (M14)	GI50 (U-251)	GI50 (SK-MEL-2)	GI50 (CAKI-1)	GI50 (HL-60)	GI50 (SW-620)	GI50 (KM12)	GI50 (EKVX)	GI50 (UACC-62)	GI50 (PC-3)	GI50 (OVCAR-4)	GI50 (UO-31)	GI50 (SF-295)	GI50 (SR)	GI50 (HT-29)	GI50 (HOP-92)	GI50 (SK-OV-3)
COc1cccc2cc(C(C)=O)c(=O)oc12	> 100 µM (inactive)	> 100 µM (inactive)	> 100 µM (inactive)	> 100 µM (inactive)	> 100 µM (inactive)	> 100 µM (inactive)	> 100 µM (inactive)	> 100 µM (inactive)	> 100 µM (inactive)	> 100 µM (inactive)	> 100 µM (inactive)	> 100 µM (inactive)	> 100 µM (inactive)	> 100 µM (inactive)	> 100 µM (inactive)	> 100 µM (inactive)	> 100 µM (inactive)	
O=C1CN(c2ccccc2)C(=O)CN1CCN1CC(=O)N(c2ccccc2)CC1=O	> 100 µM (inactive)	> 100 µM (inactive)	> 100 µM (inactive)		> 100 µM (inactive)	> 100 µM (inactive)	> 100 µM (inactive)	> 100 µM (inactive)	> 100 µM (inactive)	> 100 µM (inactive)	> 100 µM (inactive)	> 100 µM (inactive)	> 100 µM (inactive)	> 100 µM (inactive)	> 100 µM (inactive)	> 100 µM (inactive)	> 100 µM (inactive)	> 100 µM (inactive)
CCOc1ccc(-n2c(=O)n3c(Nc4ccc(Cl)cc4)nc4c(c(=O)n(C)c(=O)n4C)n3c2=O)cc1	29 µM (inactive)	> 10 µM (inactive)	32.7 µM (inactive)	26.4 µM (inactive)	38.5 µM (inactive)	22 µM (inactive)	33.9 µM (inactive)	16 µM (inactive)	24.9 µM (inactive)	18.1 µM (inactive)	47.6 µM (inactive)	53 µM (inactive)	> 100 µM (inactive)	31.6 µM (inactive)	21 µM (inactive)	27.7 µM (inactive)	22.5 µM (inactive)	
[O-][S+]1CC[S+]([O-])CC[S+]([O-])CC1 (stereo not given)	> 100 µM (inactive)	> 100 µM (inactive)	> 100 µM (inactive)			> 100 µM (inactive)	> 100 µM (inactive)	> 100 µM (inactive)	> 100 µM (inactive)	> 100 µM (inactive)	> 100 µM (inactive)	> 100 µM (inactive)	> 100 µM (inactive)	> 100 µM (inactive)	> 100 µM (inactive)	> 100 µM (inactive)	> 100 µM (inactive)	> 100 µM (inactive)
COc1ccc2c(c1)[C@@H]1c3cc(OC)c(OC)cc3CCN1CCC2	68.9 µM (inactive)	> 100 µM (inactive)	> 100 µM (inactive)	> 100 µM (inactive)	> 100 µM (inactive)	> 100 µM (inactive)	> 100 µM (inactive)	> 100 µM (inactive)	> 100 µM (inactive)	> 100 µM (inactive)	73.5 µM (inactive)	35.3 µM (inactive)	72.9 µM (inactive)	> 100 µM (inactive)	76 µM (inactive)	93.1 µM (inactive)	9.18 µM (inactive)	
Cc1nc(Cl)c(CBr)c(Cl)n1	0.272 µM (active)	0.427 µM (active)	2.04 µM (inactive)	1.87 µM (inactive)	2.28 µM (inactive)		0.351 µM (active)	1.03 µM (active)	5.87 µM (inactive)	1.38 µM (inactive)	1.63 µM (inactive)	1.83 µM (inactive)	1.68 µM (inactive)	8.45 µM (inactive)	0.0813 µM (active)	0.728 µM (active)		3.84 µM (inactive)
COCOC1C=CCCCC2=CC(C)=C(CC1)O2 (stereo not given)	> 100 µM (inactive)	> 100 µM (inactive)	> 100 µM (inactive)		> 100 µM (inactive)		> 100 µM (inactive)	> 100 µM (inactive)	> 100 µM (inactive)	> 100 µM (inactive)	> 100 µM (inactive)	> 100 µM (inactive)	> 100 µM (inactive)	> 100 µM (inactive)	61.7 µM (inactive)	99.1 µM (inactive)	> 100 µM (inactive)	> 100 µM (inactive)
Cc1cc(Cl)ccc1/N=N/C(=O)NNc1ccc(Cl)cc1C	15.6 µM (inactive)	16.9 µM (inactive)	16.4 µM (inactive)	14.1 µM (inactive)		20.3 µM (inactive)	15.9 µM (inactive)			9.04 µM (inactive)	10.4 µM (inactive)	17.7 µM (inactive)	13 µM (inactive)		22.2 µM (inactive)	21.3 µM (inactive)		
O=c1[nH]nc(Nc2ccc(Cl)cc2)c2nnn(C3CCCCC3)c12	> 100 µM (inactive)	55.1 µM (inactive)	25.2 µM (inactive)	> 100 µM (inactive)	16.2 µM (inactive)	86.3 µM (inactive)	62.4 µM (inactive)	65.5 µM (inactive)	84.1 µM (inactive)	> 100 µM (inactive)	> 100 µM (inactive)	17 µM (inactive)	> 100 µM (inactive)	> 100 µM (inactive)	7.19 µM (inactive)	26.1 µM (inactive)	22.4 µM (inactive)	
